Active and inactive are the calls of the source.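 Rule for the calls: active = EC50 at or below 30 µM together with a response span of at least a set limit; inactive = the rest.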
Target: GTPase HRas (Homo sapiens) (UniProt P01112)
Assay: inhibition of fluorescent GTP binding to activated Ras – biochemical, pyrazoline analogs, multiplex bead flow cytometry, SAR follow-up (AID 2050)
Settings: GST-Ras beads, Bodipy-FL-GTP binding

GTPase HRas (Homo sapiens), sequence (P01112 whole entry, looked up): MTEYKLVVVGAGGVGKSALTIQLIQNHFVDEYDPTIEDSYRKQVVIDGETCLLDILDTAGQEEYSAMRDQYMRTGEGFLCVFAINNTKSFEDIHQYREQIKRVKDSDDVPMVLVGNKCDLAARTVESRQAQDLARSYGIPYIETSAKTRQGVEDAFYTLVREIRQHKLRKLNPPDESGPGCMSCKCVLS

Question: For `COc1ccc(C2=NN(c3ccc(Cl)cc3)C(c3ccccc3F)C2)cc1` (stereo unspecified), which EC50 is on record?
Answer: > 30 µM (inactive)
